# According to patent US20070082880A1 (priority 2005, published 2007):
# pIC50: −log10 of the molar value.
# Target: T1, human PKCθ full length enzyme (Homo sapiens, UniProt Q04759)
# T1 construct: human PKCθ full length enzyme (Panvera Catalog No. P2996); purchased Panvera P2996
# Test: PKCθ IMAP Assay
# Format: biochemical
# Settings: average value when one or more samples were tested; ATP 6 uM, PKCθ 1 nM
# Protocol: The materials used include the following: human PKCθ full length enzyme (Panvera Catalog No. P2996); substrate peptide: 5FAM-[…]-OH (Molecular Devices, RP7032); ATP (Sigma Cat # A2383); DTT (Pierce, 20291); 5× kinase reaction buffer (Molecular Devices, R7209); 5× binding buffer A (Molecular Devices, R7282), 5× binding buffer B (Molecular Devices, R7209); IMAP Beads (Molecular Devices, R7284); and 384-well plates (Corning Costar, 3710).
# The reaction buffer was prepared by diluting the 5× stock reaction buffer and adding DTT to obtain a concentration of 3.0 mM. The binding buffer was prepared by diluting the 5× binding buffer A. A master mix solution was prepared using a 90% dilution of the reaction buffer containing 2×ATP (12 uM) and 2× peptide ([…]). […] The final concentration of compound was 2× and 10% DMSO. DMSO was added to the rest of the master mix to increase the concentration to 10%. 10 ul of the master mix containing 10% DMSO was added to the rest of the wells on the plate except the 2nd column. 20 ul was transferred from the first column to the 2nd column. The compounds were serially diluted in 2:1 ratio starting from the 2nd column. A 2× (2 nM) PKCθ solution was made in the reaction buffer. 10 ul of the PKCθ solution was added to every well to achieve these final concentrations: PKCθ—1 nM; ATP—6 uM; peptide—100 nM; DMSO—5%. Samples were incubated for 25 minutes at room temperature. The binding reagent was prepared by diluting the beads in 1× binding buffer to 800:1. 50 ul of the binding reagent was added to every well and incubated for 20 minutes. FP was measured using Envision2100 (PerkinElmer Life Sciences). Wells with no ATPs and wells with no enzymes were used as controls.
# T1 sequence (Q04759 whole entry): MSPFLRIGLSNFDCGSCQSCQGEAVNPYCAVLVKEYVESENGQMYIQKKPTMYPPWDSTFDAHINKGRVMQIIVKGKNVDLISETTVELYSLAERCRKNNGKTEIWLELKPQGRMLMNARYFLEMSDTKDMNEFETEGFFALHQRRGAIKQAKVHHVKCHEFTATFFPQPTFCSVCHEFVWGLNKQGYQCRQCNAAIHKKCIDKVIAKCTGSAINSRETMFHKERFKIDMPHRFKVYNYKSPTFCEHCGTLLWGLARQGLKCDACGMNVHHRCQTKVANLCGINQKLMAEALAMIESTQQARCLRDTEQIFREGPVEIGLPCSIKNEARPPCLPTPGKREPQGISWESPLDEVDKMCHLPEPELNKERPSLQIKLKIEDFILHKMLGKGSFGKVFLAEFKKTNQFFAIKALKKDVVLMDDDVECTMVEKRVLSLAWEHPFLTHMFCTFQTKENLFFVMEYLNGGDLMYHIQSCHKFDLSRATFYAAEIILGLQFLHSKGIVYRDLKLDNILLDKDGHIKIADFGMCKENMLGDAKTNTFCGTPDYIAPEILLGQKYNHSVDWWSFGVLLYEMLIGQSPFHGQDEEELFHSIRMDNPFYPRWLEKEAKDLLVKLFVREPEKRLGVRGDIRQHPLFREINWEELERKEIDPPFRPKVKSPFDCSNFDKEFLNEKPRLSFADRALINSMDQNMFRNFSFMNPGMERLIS
row,Compound,pIC50
1,"2-{3-[2-(dimethylamino)ethyl]phenyl}-4-(1H-indol-5-ylamino)thieno[2,3-b]pyridine-5-carbonitrile [Compound 112]",7.16
2,"CN(C)c1ccc(-c2cc3c(Nc4ccc5[nH]ccc5c4)c(C#N)cnc3s2)cc1 [Compound 111, 2-[4-(dimethylamino)phenyl]-4-(1H-indol-5-ylamino)thieno[2,3-b]pyridine-5-carbonitrile]",6.43
3,"Cc1c(Nc2c(C#N)cnc3sc(-c4ccc(CN(C)C)cc4)cc23)ccc2[nH]ccc12 [Compound 113, 2-{4-[(dimethylamino)methyl]phenyl}-4-[(4-methyl-1H-indol-5-yl)amino]thieno[2,3-b]pyridine-5-carbonitrile]",7.85
4,"CN(C)Cc1ccccc1-c1cc2c(Nc3ccc4[nH]ccc4c3)c(C#N)cnc2s1 [Compound 114, 2-{2-[(dimethylamino)methyl]phenyl}-4-(1H-indol-5-ylamino)thieno[2,3-b]pyridine-5-carbonitrile]",6.24
5,"Cc1c(Nc2c(C#N)cnc3sc(-c4ccc(CN5CCN(C)CC5)cc4)cc23)ccc2[nH]ccc12 [Compound 121, 4-[(4-methyl-1H-indol-5-yl)amino]-2-{4-[(4-methylpiperazin-1-yl)methyl]phenyl}thieno[2,3-b]pyridine-5-carbonitrile]",7.42
6,"CN(c1ccc2[nH]ccc2c1)c1c(C#N)cnc2sc(-c3ccccc3)cc12 [Compound 122, 4-[1H-indol-5-yl(methyl)amino]-2-phenylthieno[2,3-b]pyridine-5-carbonitrile]",< 4.26
7,"CCc1c(Nc2c(C#N)cnc3sc(-c4ccccc4)cc23)ccc2[nH]ccc12 [Compound 126, 4-[(4-ethyl-1H-indol-5-yl)amino]-2-phenylthieno[2,3-b]pyridine-5-carbonitrile]",6.08
8,"N#Cc1cnc2sc(-c3cccc(CN4CCOCC4)c3)cc2c1Nc1ccc2[nH]ccc2c1 [Compound 146, 4-(1H-indol-5-ylamino)-2-[3-(morpholin-4-ylmethyl)phenyl]thieno[2,3-b]pyridine-5-carbonitrile]",6.26
9,"CN(C)Cc1ccc(-c2cc3c(Nc4ccc5[nH]ccc5c4)c(C#N)cnc3s2)o1 [Compound 153, 2-{5-[(dimethylamino)methyl]-2-furyl}-4-(1H-indol-5-ylamino)thieno[2,3-b]pyridine-5-carbonitrile]",6.77
10,"CN(C)Cc1cc(-c2cc3c(Nc4ccc5[nH]ccc5c4)c(C#N)cnc3s2)co1 [Compound 154, 2-{5-[(dimethylamino)methyl]-3-furyl}-4-(1H-indol-5-ylamino)thieno[2,3-b]pyridine-5-carbonitrile]",6.74
11,"COc1ccc(CN(C)C)cc1-c1cc2c(Nc3ccc4[nH]ccc4c3)c(C#N)cnc2s1 [Compound 155, 2-{5-[(dimethylamino)methyl]-2-methoxyphenyl}-4-(1H-indol-5-ylamino)thieno[2,3-b]pyridine-5-carbonitrile]",7.42
12,"Cc1c(Nc2c(C#N)cnc3sc(-c4ccccc4CN(C)C)cc23)ccc2[nH]ccc12 [Compound 156, 2-{2-[(dimethylamino)methyl]phenyl}-4-[(4-methyl-1H-indol-5-yl)amino]thieno[2,3-b]pyridine-5-carbonitrile]",7.03
13,"N#Cc1cnc2sc(-c3csc(CN4CC[C@H](O)C4)c3)cc2c1Nc1ccc2[nH]ccc2c1 [Compound 157, 2-(5-{[(3S)-3-hydroxypyrrolidin-1-yl]methyl}-3-thienyl)-4-(1H-indol-5-ylamino)thieno[2,3-b]pyridine-5-carbonitrile]",7.36
14,"N#Cc1cnc2sc(-c3csc(CN4CCC[C@H]4CO)c3)cc2c1Nc1ccc2[nH]ccc2c1 [Compound 158, 2-(5-{[(2S)-2-(hydroxymethyl)pyrrolidin-1-yl]methyl}-3-thienyl)-4-(1H-indol-5-ylamino)thieno[2,3-b]pyridine-5-carbonitrile]",7.24
15,"N#Cc1cnc2sc(-c3cccc(CN4CCCC4)c3)cc2c1Nc1ccc2[nH]ccc2c1 [Compound 159, 4-(1H-indol-5-ylamino)-2-[3-(pyrrolidin-1-ylmethyl)phenyl]thieno[2,3-b]pyridine-5-carbonitrile]",6.62
16,"N#Cc1cnc2sc(-c3cccc(CN4CCCCC4)c3)cc2c1Nc1ccc2[nH]ccc2c1 [Compound 160, 4-(1H-indol-5-ylamino)-2-[3-(piperidin-1-ylmethyl)phenyl]thieno[2,3-b]pyridine-5-carbonitrile]",6.44
17,"CCN(CC)Cc1cccc(-c2cc3c(Nc4ccc5[nH]ccc5c4)c(C#N)cnc3s2)c1 [Compound 161, 2-{3-[(diethylamino)methyl]phenyl}-4-(1H-indol-5-ylamino)thieno[2,3-b]pyridine-5-carbonitrile]",6.46
18,"COCCN(C)Cc1cccc(-c2cc3c(Nc4ccc5[nH]ccc5c4)c(C#N)cnc3s2)c1 [Compound 162, 4-(1H-indol-5-ylamino)-2-(3-{[(2-methoxyethyl)(methyl)amino]methyl}phenyl)thieno[2,3-b]pyridine-5-carbonitrile]",6.57
19,"CN(C)CCN1CCN(Cc2cccc(-c3cc4c(Nc5ccc6[nH]ccc6c5)c(C#N)cnc4s3)c2)CC1 [Compound 163, 2-[3-({4-[2-(dimethylamino)ethyl]piperazin-1-yl}methyl)phenyl]-4-(1H-indol-5-ylamino)thieno[2,3-b]pyridine-5-carbonitrile]",6.89
20,"CN(CCO)Cc1cccc(-c2cc3c(Nc4ccc5[nH]ccc5c4)c(C#N)cnc3s2)c1 [Compound 164, 2-(3-{[(2-hydroxyethyl)(methyl)amino]methyl}phenyl)-4-(1H-indol-5-ylamino)thieno[2,3-b]pyridine-5-carbonitrile]",7.06
21,"COCCNCc1cccc(-c2cc3c(Nc4ccc5[nH]ccc5c4)c(C#N)cnc3s2)c1 [Compound 165, 4-(1H-indol-5-ylamino)-2-(3-{[(2-methoxyethyl)amino]methyl}phenyl)thieno[2,3-b]pyridine-5-carbonitrile]",6.96
22,"CN(C)CCNCc1cccc(-c2cc3c(Nc4ccc5[nH]ccc5c4)c(C#N)cnc3s2)c1 [Compound 166, 2-[3-({[2-(dimethylamino)ethyl]amino}methyl)phenyl]-4-(1H-indol-5-ylamino)thieno[2,3-b]pyridine-5-carbonitrile]",6.80
23,"N#Cc1cnc2sc(-c3cccc(CNCCCO)c3)cc2c1Nc1ccc2[nH]ccc2c1 [Compound 167, 2-(3-{[(3-hydroxypropyl)amino]methyl}phenyl)-4-(1H-indol-5-ylamino)thieno[2,3-b]pyridine-5-carbonitrile]",6.96
24,"N#Cc1cnc2sc(-c3cccc(CN4CCN(CC(=O)N5CCCC5)CC4)c3)cc2c1Nc1ccc2[nH]ccc2c1 [Compound 168, 4-(1H-indol-5-ylamino)-2-(3-{[4-(2-oxo-2-pyrrolidin-1-ylethyl)piperazin-1-yl]methyl}phenyl)thieno[2,3-b]pyridine-5-carbonitrile]",6.28
25,"N#Cc1cnc2sc(-c3cccc(CN4CCN(Cc5ccncc5)CC4)c3)cc2c1Nc1ccc2[nH]ccc2c1 [Compound 169, 4-(1H-indol-5-ylamino)-2-(3-{[4-(pyridin-4-ylmethyl)piperazin-1-yl]methyl}phenyl)thieno[2,3-b]pyridine-5-carbonitrile]",6.08
26,"N#Cc1cnc2sc(-c3cccc(CNCCN4CCOCC4)c3)cc2c1Nc1ccc2[nH]ccc2c1 [Compound 170, 4-(1H-indol-5-ylamino)-2-(3-{[(2-morpholin-4-ylethyl)amino]methyl}phenyl)thieno[2,3-b]pyridine-5-carbonitrile]",6.37
27,"N#Cc1cnc2sc(-c3cccc(CN4CC[C@H](O)C4)c3)cc2c1Nc1ccc2[nH]ccc2c1 [Compound 171, 2-(3-{[(3S)-3-hydroxypyrrolidin-1-yl]methyl}phenyl)-4-(1H-indol-5-ylamino)thieno[2,3-b]pyridine-5-carbonitrile]",6.96
28,"N#Cc1cnc2sc(-c3cccc(CN4CC[C@@H](O)C4)c3)cc2c1Nc1ccc2[nH]ccc2c1 [Compound 172, 2-(3-{[(3R)-3-hydroxypyrrolidin-1-yl]methyl}phenyl)-4-(1H-indol-5-ylamino)thieno[2,3-b]pyridine-5-carbonitrile]",7.16
29,"N#Cc1cnc2sc(-c3cccc(CN4CCCC(CO)C4)c3)cc2c1Nc1ccc2[nH]ccc2c1 (stereo not drawn) [Compound 173, 2-(3-{[3-(hydroxymethyl)piperidin-1-yl]methyl}phenyl)-4-(1H-indol-5-ylamino)thieno[2,3-b]pyridine-5-carbonitrile]",6.89
30,"N#Cc1cnc2sc(-c3cccc(CN4CCC(CO)CC4)c3)cc2c1Nc1ccc2[nH]ccc2c1 [Compound 174, 2-(3-{[4-(hydroxymethyl)piperidin-1-yl]methyl}phenyl)-4-(1H-indol-5-ylamino)thieno[2,3-b]pyridine-5-carbonitrile]",6.62
